Test results as given in PubChem BioAssay AID1963445 (Molecular Pharmacology Branch, DTP, NCI, 2024).

System: MCF7 complex spheroid growth, % test/control
Assay: Anticancer human tumor MCF7 cell line growth inhibition [Asc];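 note: spheroids exposed to compounds for 7 days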;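 for viability, T/C: 100% = DMSO vehicle control wells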
Conditions: for IC50: curve of first compound; for viability, T/C: stronger effect = lower value; active = viability on the fitted dose curve at most 10% of control; inactive = the rest
Summary of the method: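 Stromal components (HUVEC and hMSC) are co-assembled with the cancer cells into multicellular spheroids. Drugs are then added singly or paired, at concentrations falling by half-log increments from a clinically achievable maximum, capped at 10 microM without known Cmax.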

[1] = second compound 0.00316 µM, first compound 0.00949 µM
[2] = second compound 0.00316 µM, first compound 0.03 µM
[3] = second compound 0.00316 µM, first compound 0.0949 µM
[4] = second compound 0.00316 µM, first compound 0.3 µM
[5] = second compound 0.00316 µM, first compound 0.949 µM
[6] = second compound 0.00316 µM, first compound 3 µM
[7] = second compound 0.01 µM, first compound 0.00949 µM
[8] = second compound 0.01 µM, first compound 0.03 µM
[9] = second compound 0.01 µM, first compound 0.0949 µM
[10] = second compound 0.01 µM, first compound 0.3 µM
[11] = second compound 0.01 µM, first compound 0.949 µM
[12] = second compound 0.01 µM, first compound 3 µM
[13] = second compound 0.0316 µM, first compound 0.00949 µM
[14] = second compound 0.0316 µM, first compound 0.03 µM
[15] = second compound 0.0316 µM, first compound 0.0949 µM
[16] = second compound 0.0316 µM, first compound 0.3 µM
[17] = second compound 0.0316 µM, first compound 0.949 µM
[18] = second compound 0.0316 µM, first compound 3 µM
[19] = second compound 0.1 µM, first compound 0.00949 µM
[20] = second compound 0.1 µM, first compound 0.03 µM
[21] = second compound 0.1 µM, first compound 0.0949 µM
[22] = second compound 0.1 µM, first compound 0.3 µM
[23] = second compound 0.1 µM, first compound 0.949 µM
[24] = second compound 0.1 µM, first compound 3 µM
[25] = second compound 0.316 µM, first compound 0.00949 µM
[26] = second compound 0.316 µM, first compound 0.03 µM
[27] = second compound 0.316 µM, first compound 0.0949 µM
[28] = second compound 0.316 µM, first compound 0.3 µM
[29] = second compound 0.316 µM, first compound 0.949 µM
[30] = second compound 0.316 µM, first compound 3 µM
[31] = second compound 1 µM, first compound 0.00949 µM
[32] = second compound 1 µM, first compound 0.03 µM
[33] = second compound 1 µM, first compound 0.0949 µM
[34] = second compound 1 µM, first compound 0.3 µM
[35] = second compound 1 µM, first compound 0.949 µM
[36] = second compound 1 µM, first compound 3 µM

CCN1C(C(=O)NC23CCC(C(=O)O)(CC2)CC3)C(c2cccc(Cl)c2F)C2(C(=O)Nc3cc(Cl)ccc32)C12CCCCC2 (centres undefined) + CNC(C)C(=O)NC1CN(S(=O)(=O)c2cccc(S(=O)(=O)N3CCC4CCC(C(=O)NC(c5ccccc5)c5ccccc5)N4C(=O)C(NC(=O)C(C)NC)C3)c2)CCC2CCC(C(=O)NC(c3ccccc3)c3ccccc3)N2C1=O
active: viability, T/C [3] 10.8% | viability, T/C [4] 11% | viability, T/C [5] 8.86% | viability, T/C [6] 5.04% | viability, T/C [8] 8.24% | viability, T/C [9] 8.54% | viability, T/C [10] 5.55% | viability, T/C [11] 5.82% | viability, T/C [12] 5.04% | viability, T/C [14] 8.85% | viability, T/C [15] 5.62% | viability, T/C [16] 5.69% | viability, T/C [17] 4.2% | viability, T/C [18] 5.94% | viability, T/C [20] 10.7% | viability, T/C [21] 6.73% | viability, T/C [22] 6.23% | viability, T/C [23] 4.67% | viability, T/C [24] 5.57% | viability, T/C [26] 10.7% | viability, T/C [27] 7.04% | viability, T/C [28] 5.56% | viability, T/C [29] 5.97% | viability, T/C [30] 6.29% | viability, T/C [33] 9.54% | viability, T/C [34] 5.59% | viability, T/C [35] 4.74% | viability, T/C [36] 6.71%
< 9.49 nM: IC50 (second compound 0.00316 µM) | IC50 (second compound 0.01 µM) | IC50 (second compound 0.0316 µM) | IC50 (second compound 0.1 µM) | IC50 (second compound 0.316 µM) | IC50 (second compound 1 µM)
inactive: viability, T/C [1] 40.9% | viability, T/C [2] 14.3% | viability, T/C [7] 11.4% | viability, T/C [13] 11.9% | viability, T/C [19] 12% | viability, T/C [25] 12.5% | viability, T/C [31] 11.2% | viability, T/C [32] 12.5%

Cc1nc(N2CCC3(CC2)COC(C)C3N)c(CO)nc1Sc1ccnc(N)c1Cl (centres undefined) + CNC(C)C(=O)NC1CN(S(=O)(=O)c2cccc(S(=O)(=O)N3CCC4CCC(C(=O)NC(c5ccccc5)c5ccccc5)N4C(=O)C(NC(=O)C(C)NC)C3)c2)CCC2CCC(C(=O)NC(c3ccccc3)c3ccccc3)N2C1=O
< 9.49 nM: IC50 (second compound 0.00316 µM) | IC50 (second compound 0.01 µM) | IC50 (second compound 0.0316 µM) | IC50 (second compound 0.1 µM) | IC50 (second compound 0.316 µM) | IC50 (second compound 1 µM)
inactive: viability, T/C [1] 26.7% | viability, T/C [2] 31.8% | viability, T/C [3] 19.9% | viability, T/C [4] 17.6% | viability, T/C [5] 10.6% | viability, T/C [7] 15.9% | viability, T/C [8] 11.2% | viability, T/C [9] 10.3% | viability, T/C [10] 13% | viability, T/C [11] 11.4% | viability, T/C [12] 11.1% | viability, T/C [13] 12.7% | viability, T/C [14] 10.7% | viability, T/C [15] 12.2% | viability, T/C [16] 11.9% | viability, T/C [17] 11.3% | viability, T/C [18] 9.37% | viability, T/C [19] 10.1% | viability, T/C [20] 12.7% | viability, T/C [21] 11.3% | viability, T/C [22] 10.4% | viability, T/C [23] 10.6% | viability, T/C [24] 10.1% | viability, T/C [25] 13.9% | viability, T/C [26] 12.2% | viability, T/C [27] 11.5% | viability, T/C [28] 11.6% | viability, T/C [29] 12.3% | viability, T/C [30] 12% | viability, T/C [31] 13.6% | viability, T/C [32] 12.7% | viability, T/C [33] 14.2% | viability, T/C [34] 11.9% | viability, T/C [35] 12.6% | viability, T/C [36] 11.9%
active: viability, T/C [6] 10.9%
